Results taken from ChEMBL document CHEMBL4765454, “Betulinic acid derived amides are highly cytotoxic, apoptotic and selective” (Eur J Med Chem, 2020).

Legend:
[1] = test system: A-375; assay: Cytotoxicity against human A-375 cells assessed as reduction in cell viability incubated for 72 hrs by SRB assay; format: functional, cell-based
[2] = test system: HT-29; assay: Cytotoxicity against human HT-29 cells assessed as reduction in cell viability incubated for 72 hrs by SRB assay; format: functional, cell-based
[3] = test system: MCF7; assay: Cytotoxicity against human MCF7 cells assessed as reduction in cell viability incubated for 72 hrs by SRB assay; format: functional, cell-based
[4] = test system: A2780; assay: Cytotoxicity against human A2780 cells assessed as reduction in cell viability incubated for 72 hrs by SRB assay; format: functional, cell-based
[5] = test system: FaDu; assay: Cytotoxicity against human FaDu cells assessed as reduction in cell viability incubated for 72 hrs by SRB assay; format: functional, cell-based
[6] = test system: NIH3T3; assay: Cytotoxicity against mouse NIH3T3 cells assessed as reduction in cell viability incubated for 72 hrs by SRB assay; format: cell-based
[7] = Selectivity ratio of EC50 for mouse NIH3T3 cells to EC50 for human HT-29 cells; format: toxicity; details: NIH3T3 cells versus HT-29 cells, read-out: Ratio EC50
[8] = Selectivity ratio of EC50 for mouse NIH3T3 cells to EC50 for human MCF7 cells; format: toxicity; details: NIH3T3 cells versus MCF7 cells, read-out: Ratio EC50
[9] = Selectivity ratio of EC50 for mouse NIH3T3 cells to EC50 for human A2780 cells; format: toxicity; details: NIH3T3 cells versus A2780 cells, read-out: Ratio EC50
[10] = Selectivity ratio of EC50 for mouse NIH3T3 cells to EC50 for human FaDu cells
[11] = Selectivity ratio of EC50 for mouse NIH3T3 cells to EC50 for human A375 cells; format: toxicity; details: NIH3T3 cells versus A375 cells, read-out: Ratio EC50
[12] = Homo sapiens, A-375, 72 h, read-out: EC50
[13] = Homo sapiens, HT-29, 72 h, read-out: EC50
[14] = Homo sapiens, MCF7, 72 h, read-out: EC50
[15] = Homo sapiens, A2780, 72 h, read-out: EC50
[16] = Homo sapiens, FaDu, 72 h, read-out: EC50
[17] = Mus musculus, NIH3T3, 72 h, read-out: EC50

Structure (SMILES) | EC50 [1, 12] [µM] | EC50 [2, 13] [µM] | EC50 [3, 14] [µM] | EC50 [4, 15] [µM] | EC50 [5, 16] [µM] | EC50 [6, 17] [µM] | selectivity ratio [7] | selectivity ratio [8] | selectivity ratio [9] | Ratio EC50 [10] | selectivity ratio [11] | EC50 ([1]; a-375) | EC50 ([2]; ht-29) | EC50 ([3]; mcf7) | EC50 ([4]; a2780) | EC50 ([5]; fadu) | EC50 ([6]; nih3t3)
CC(=O)[C@@H]1CC[C@]2(C(=O)O)CC[C@]3(C)[C@H](CC[C@@H]4[C@@]5(C)CCC(=O)C(C)(C)[C@@H]5CC[C@]43C)[C@@H]12 | > 30 | > 30 | > 30 | > 30 | > 30 | > 30 |  |  |  |  |  |  |  |  |  |  | 
CC(=O)[C@@H]1CC[C@]2(C(=O)O)CC[C@]3(C)[C@H](CC[C@@H]4[C@@]5(C)CC[C@H](O)C(C)(C)[C@@H]5CC[C@]43C)[C@@H]12 [PLATANIC ACID] | > 30 | > 30 | > 30 | > 30 | > 30 | > 30 |  |  |  |  |  |  |  |  |  |  | 
C=C(C)[C@@H]1CC[C@]2(C(=O)Nc3cncc4ccccc34)CC[C@]3(C)[C@H](CC[C@@H]4[C@@]5(C)C[C@H](OC(C)=O)[C@H](OC(C)=O)C(C)(C)[C@@H]5CC[C@]43C)[C@@H]12 | 3.34 | > 15 | 7.33 | 4.76 | 4.02 | > 30 | 2 | 4.1 | 6.3 | 7.5 |  |  |  |  |  |  | 
C=C(C)[C@@H]1CC[C@]2(C(=O)O)CC[C@]3(C)[C@H](CC[C@@H]4[C@@]5(C)CC[C@H](OC(C)=O)C(C)(C)[C@@H]5CC[C@]43C)[C@@H]12 | 19.2 | 21.3 |  |  | 7.2 | > 30 | 1.4 | 2.7 | 1.6 | 4.2 | 1.6 |  |  |  |  |  | 
C=C(C)[C@@H]1CC[C@]2(C(=O)O)CC[C@]3(C)[C@H](CC[C@@H]4[C@@]5(C)CCC(=O)C(C)(C)[C@@H]5CC[C@]43C)[C@@H]12 [BETUNOLIC ACID] | 14.3 | 18.5 | 12 | 4.7 | 17.4 | 19.4 |  |  |  |  |  |  |  |  |  |  | 
C=C(C)[C@@H]1CC[C@]2(C(=O)O)CC[C@]3(C)[C@H](CC[C@@H]4[C@@]5(C)C[C@H](O)[C@H](O)C(C)(C)[C@@H]5CC[C@]43C)[C@@H]12 | 11.2 | 17.7 | 15.8 | 12.3 | 16.5 | 17.3 | 1 | 1.1 | 1.4 | 1 | 1.5 |  |  |  |  |  | 
CC(=O)O[C@H]1CC[C@]2(C)[C@H]3CC[C@@H]4[C@H]5[C@H](C(C)=O)CC[C@]5(C(=O)Nc5cncc6ccccc56)CC[C@@]4(C)[C@]3(C)CC[C@H]2C1(C)C | 5.66 | > 30 | 9.34 | 7.84 | 7.67 | > 30 | 1 | 3.2 | 3.8 | 3.9 |  |  |  |  |  |  | 
C=C(C)[C@@H]1CC[C@]2(C(=O)NCc3ccccc3)CC[C@]3(C)[C@H](CC[C@@H]4[C@@]5(C)CC[C@H](OC(C)=O)C(C)(C)[C@@H]5CC[C@]43C)[C@@H]12 | 4.05 | > 30 | 26.8 | 6.29 | 9.59 | > 30 | 1 | 1.1 | 4.8 | 3.1 |  |  |  |  |  |  | 
CC(=O)O[C@H]1CC[C@]2(C)[C@H]3CC[C@@H]4[C@H]5[C@H](C(C)=O)CC[C@]5(C(=O)Nc5cccc6ncccc56)CC[C@@]4(C)[C@]3(C)CC[C@H]2C1(C)C | 4.6 | > 30 | 7.06 | 5.4 | 6.42 | > 30 | 1 | 4.3 | 5.6 | 4.7 |  |  |  |  |  |  | 
CC(=O)O[C@H]1C[C@]2(C)[C@H]3CC[C@@H]4[C@H]5[C@H](C(C)=O)CC[C@]5(C(=O)Nc5cncc6ccccc56)CC[C@@]4(C)[C@]3(C)CC[C@H]2C(C)(C)[C@H]1OC(C)=O | 4.88 | 18.4 | 6.96 | 6.15 | 6.41 | > 30 | 1.6 | 4.3 | 4.9 | 4.7 |  |  |  |  |  |  | 
CC(=O)[C@@H]1CC[C@]2(C(=O)O)CC[C@]3(C)[C@H](CC[C@@H]4[C@@]5(C)C[C@H](O)[C@H](O)C(C)(C)[C@@H]5CC[C@]43C)[C@@H]12 | > 30 | > 30 | > 30 | > 30 | > 30 | > 30 |  |  |  |  |  |  |  |  |  |  | 
C=C(C)[C@@H]1CC[C@]2(C(=O)O)CC[C@]3(C)[C@H](CC[C@@H]4[C@@]5(C)C=C(O)C(=O)C(C)(C)[C@@H]5CC[C@]43C)[C@@H]12 | 13.8 | 26.1 | 12 | 10.5 | 14.1 | 12.8 | 0.5 | 1.1 | 1.2 | 0.9 | 0.9 |  |  |  |  |  | 
CC(=O)[C@@H]1CC[C@]2(C(=O)O)CC[C@]3(C)[C@H](CC[C@@H]4[C@@]5(C)C=C(O)C(=O)C(C)(C)[C@@H]5CC[C@]43C)[C@@H]12 | > 30 | > 30 | 24.8 | 20.6 | > 30 | > 30 |  |  |  |  |  |  |  |  |  |  | 
CC(=O)O[C@H]1C[C@]2(C)[C@H]3CC[C@@H]4[C@H]5[C@H](C(C)=O)CC[C@]5(C(=O)Nc5cccc6ncccc56)CC[C@@]4(C)[C@]3(C)CC[C@H]2C(C)(C)[C@H]1OC(C)=O |  |  |  |  |  |  |  |  |  |  |  | Nd(Insoluble) | Nd(Insoluble) | Nd(Insoluble) | Nd(Insoluble) | Nd(Insoluble) | Nd(Insoluble)
C=C(C)[C@@H]1CC[C@]2(C(=O)O)CC[C@]3(C)[C@H](CC[C@@H]4[C@@]5(C)CC[C@H](O)C(C)(C)[C@@H]5CC[C@]43C)[C@@H]12 [BETULINIC ACID] | > 30 | > 30 | > 30 | > 30 | > 30 | > 30 |  |  |  |  |  |  |  |  |  |  | 
CC(=O)O[C@H]1CC[C@]2(C)[C@H]3CC[C@@H]4[C@H]5[C@H](C(C)=O)CC[C@]5(C(=O)O)CC[C@@]4(C)[C@]3(C)CC[C@H]2C1(C)C | > 30 | > 30 | > 30 | > 30 | > 30 | > 30 |  |  |  |  |  |  |  |  |  |  | 
CC(=O)O[C@H]1C[C@]2(C)[C@H]3CC[C@@H]4[C@H]5[C@H](C(C)=O)CC[C@]5(C(=O)O)CC[C@@]4(C)[C@]3(C)CC[C@H]2C(C)(C)[C@H]1OC(C)=O | 22.5 | > 30 | > 30 | > 30 | > 30 | 9.57 | 0.3 | 0.3 | 0.3 | 0.3 | 0.4 |  |  |  |  |  | 
C=C(C)[C@@H]1CC[C@]2(C(=O)Nc3cccc4ncccc34)CC[C@]3(C)[C@H](CC[C@@H]4[C@@]5(C)CC[C@H](OC(C)=O)C(C)(C)[C@@H]5CC[C@]43C)[C@@H]12 | 3.05 | > 30 | 12.1 | 5.08 | 5.18 | > 30 | 1 | 2.5 | 5.9 | 5.8 |  |  |  |  |  |  | 
COc1cccc2c1C(=O)c1c(O)c3c(c(O)c1C2=O)C[C@@](O)(C(=O)CO)C[C@@H]3O[C@H]1C[C@H](N)[C@H](O)[C@H](C)O1 [DOXORUBICIN] |  | > 30 |  |  |  | 1.3 |  |  |  |  |  |  |  |  |  |  | 
CC(=O)O[C@H]1CC[C@]2(C)[C@H]3CC[C@@H]4[C@H]5[C@H](C(C)=O)CC[C@]5(C(=O)NCc5ccccc5)CC[C@@]4(C)[C@]3(C)CC[C@H]2C1(C)C |  |  |  |  |  |  |  |  |  |  |  | Nd(Insoluble) | Nd(Insoluble) | Nd(Insoluble) | Nd(Insoluble) | Nd(Insoluble) | Nd(Insoluble)
CC(=O)O[C@H]1C[C@]2(C)[C@H]3CC[C@@H]4[C@H]5[C@H](C(C)=O)CC[C@]5(C(=O)NCc5ccccc5)CC[C@@]4(C)[C@]3(C)CC[C@H]2C(C)(C)[C@H]1OC(C)=O | 2.9 | 7.22 | 5.2 | 2.36 | 5.57 | > 30 | 4.2 | 5.8 | 12.7 | 5.4 |  |  |  |  |  |  | 
